Laboratory results from patent US10119079B2, “Composition for removal of sulfur-containing compounds” (KURARAY CO., LTD., priority 2014, dated 2018).
≈ marks a conversion by molar mass, not a printed value.

Legend:
[1] = Removal of H2S from crude oil in autoclave (Examples 2-3, Comparative Examples 1-2); conditions: liquid added at 1% by mass, 80° C., 5 hours, 800 rpm; for H2S concentration of the gas phase part after the reaction: initial 2,580-2,800 ppm
Method: In a 100-mL autoclave equipped with a thermometer and a stirrer, 30 mL of a crude oil collected in Japan was charged and stirred until an H2S concentration of a gas phase part became constant. Thereafter, the concentration was measured with RX-517 (manufactured by Riken Kiki Co., Ltd.) and found to be 2,800 ppm. Subsequently, a composition liquid prepared by mixing PEG-200 and NL/MOL in a mass ratio of 1/1 was added in a concentration of 1% by mass relative to the crude oil. At this time, the addition amount of NL/MOL was 0.6 mmol, and the presence amount of H2S within the apparatus was 0.05 mmol. Thereafter, the inside of the apparatus was subjected to temperature rise to 80° C. while stirring at 800 rpm, and the contents were allowed to react with each other for 5 hours. After the reaction, the reaction mixture was cooled to room temperature, an H2S concentration of the gas phase part was measured and found to be 2 ppm, and a removal efficiency was 99.9%.
(§1) In a 100-mL autoclave equipped with a thermometer and a stirrer, 30 mL of a crude oil collected in Japan was charged and stirred until an H2S concentration of a gas phase part became constant. Thereafter, the concentration was measured with RX-517 (manufactured by Riken Kiki. Co., Ltd.) and found to be 2,580 ppm. Subsequently, a 50% by mass MGL aqueous solution was added in a concentration of 1% by mass relative to the crude oil. At this time, the addition amount of MGL was 0.9 mmol, and the presence amount of H2S within the apparatus was 0.05 mmol. Thereafter, the inside of the apparatus was subjected to temperature rise to 80° C. while stirring at 800 rpm, and the contents were allowed to react with each other for 5 hours. After the reaction, the reaction mixture was cooled to room temperature, an H2S concentration of the gas phase part was measured and found to be 70 ppm, and a removal efficiency was 97.3%.
as §1, with “Kiki” for “Kiki.”, “2,714” for “2,580”, “glutaraldehyde” for “MGL”, “1.0” for “0.9”, “100” for “70”, “96.3%.” for “97.3%.”
In a 100-mL autoclave equipped with a thermometer and a stirrer, 30 mL of a crude oil collected in Japan was charged and stirred until an H2S concentration of a gas phase part became constant. Thereafter, the concentration was measured with RX-517 (manufactured by Riken Kiki Co., Ltd.) and found to be 2,600 ppm. Subsequently, a 40% by mass glyoxal aqueous solution (manufactured by Wako Pure Chemical Industries, Ltd.) was added in a concentration of 1% by mass relative to the crude oil. At this time, the addition amount of glyoxal was 1.8 mmol, and the presence amount of H2S within the apparatus was 0.04 mmol. Thereafter, the inside of the apparatus was subjected to temperature rise to 80° C. while stirring at 800 rpm, and the contents were allowed to react with each other for 5 hours. After the reaction, the reaction mixture was cooled to room temperature, an H2S concentration of the gas phase part was measured and found to be 498 ppm, and a removal efficiency was 80.8%.

[2] = system: 6-week-old male CRj:CD(SD) rat; experiment: Oral toxicity, 14-day repeated oral administration; type: in vivo
Description: A test substance which had been emulsified and dispersed in a 2%-gum arabic aqueous solution (containing 0.5%-Tween 80) was compulsorily administered in a 6-week-old male CRj:CD(SD) rat once a day for 14 days by using an oral sonde. A body weight variation and a general state during the administration period were observed. The rat was fasted for one day from the final administration date (drinking was freely taken), and on the day after final administration, taking a blood sample (for various blood tests) and mass measurement of major organs were performed. In addition, with respect to the liver, kidney, spleen, and testis, a histopathological examination (optical microscopic observation of HE-stained thin sliced tissue piece) was also carried out. A dose was set to 1,000, 250, 60, 15, and 0 mg/kg/day (administration liquid volume=1 mL/100 g-body weight/day), respectively, and five animals were used for each dosage.
(1) NL (GC purity: 99.7%)
(2) Glutaraldehyde (water content: 101 ppm, GC purity: 99.8%)
As a result of the test, with respect to NL, no fatal case was admitted even at the highest dose of 1,000 mg/kg/day.

[3] = system: Pseudokirchneriella subcapitata; experiment: Alga growth inhibition test (OECD Test Guidelines No. 201); type: cell-based; conditions: Selenastrum capricornutum; algae growth inhibition, 23° C., 72 hours; read-out: ErC50 (72 hr)
Method: An alga growth inhibition test of a test substance was carried out with reference to OECD Test Guidelines No. 201. That is, each of the following test substances was diluted with a test medium to a prescribed dosage. A liquid suspension of algae which had been grown to an exponential growth phase by preculture was added in an initial concentration of 1×10^4 cells/mL. The liquid suspension was subjected to shaking culture at 23° C. using a light irradiation-type bio shaker (BR-180LF, manufactured by Taitec Corporation), the number of algae cells at an elapsed time of 24, 48, and 72 hours, respectively after the start of the test was counted with a flow cytometer (Cell Lab Quant SC, manufactured by Beckman Coulter, Inc.), and a growth ratio at each test dosage was calculated while defining a growth ratio of the normal control as 100%. In addition, ErC50 was calculated according to an equation of an approximate curve of a graph plotting a growth inhibition ratio.
Algae: Pseudokirchneriella subcapitata
Dosage of Test Substance:
Each of the test substance (1) and the test substance (2): 100, 32, 10, 3.2, 1, 0.32 mg/L (common ratio: √10), and 0 mg/L (normal control)
Standard substance: 3.2, 1, 0.32 mg/L, and 0 mg/L (normal control)

[4] = system: sludge of the sewage treatment plant; experiment: Bactericidal test on sludge (MTT method); type: cell-based; conditions: sludge bacterial culture, about 25° C., 24 and 48 hours, MTT visual
Method: To a synthetic sewer water prepared by dissolving 5 g of each of glucose, peptone, and monopotassium dihydrogen phosphate in one liter of water and adjusting the pH at 7.0±1.0 with sodium hydroxide, a sludge of the sewage treatment plant located in the Mizushima district, Kurashiki-shi, Okayama Prefecture, Japan was added in an amount of 30 ppm as converted to dry mass, thereby preparing a bacterial culture. Meanwhile, a test substance was diluted with distilled water on a scale of […] in a final concentration of 1,000 to 0.004 ppm (common ratio=4) on a 24-well microplate, thereby preparing test solutions. Two wells were used for every concentration. As a comparison target, (distilled water+bacterial culture) was defined as “bacterial culture blank”, and distilled water alone was defined as “blank”.
The above-prepared bacterial culture and test solution were mixed in a volume ratio of 1/1, and the mixture was allowed to stand within a thermostatic tank at ambient temperature (about 25° C.) for 24 hours and 48 hours, respectively. A level of sludge influence at each concentration of the test substance was visually observed by means of the MTT method. An MTT reagent is converted by mitochondria as a microorganism in the sludge to form formazan, thereby developing a blue color.
(1) Mixture of NL and MOL (GC purity: 98.7%, NL/MOL=59/41) […]

[5] = rat, oral, once a day for 14 days

O=CCCCC=O [Glutaraldehyde, glutaraldehyde]
removal efficiency [1]: 96.3% | H2S concentration of the gas phase part after the reaction [1]: 100 ppm | NOEL (maximum no-effect level) [2, 5]: 5 mg/kg | EC50 [3]: 9 µg/mL (≈ 89.9 µM) | Sterilizing concentration [4]: 63 ppm

CC(CC=O)CC=O [MGL, 3-methylglutaraldehyde]
removal efficiency [1]: 97.3% | H2S concentration of the gas phase part after the reaction [1]: 70 ppm

O=CCCCCCCCC=O [NL, 1,9-nonanedial]
classification as deleterious substance ([2]; rat oral toxicity test): not corresponding to a “deleterious substance” | NOEL (maximum no-effect level) [2, 5]: 250 mg/kg | fatal cases ([2]; rat, oral, once a day for 14 days, highest dose of 1,000 mg/kg/day): no fatal case

O=CC=O [glyoxal]
removal efficiency [1]: 80.8% | H2S concentration of the gas phase part after the reaction [1]: 498 ppm
